From US10280190B2, “Nicotinic acid riboside or nicotinamide riboside compositions, reduced derivatives thereof, and the use thereof to enhance skin permeation in treating skin conditions” (ChromaDex Inc., priority 2015, dated 2019)

Tested on: A431 human epidermoid cells
Assay: Oxidative damage protection assay (Example 3), compound with 1 mM H2O2, alamar blue readout
Type: cell-based
Description: The cells were trypsinized with 0.25% trypsin EDTA solution for 2-3 minutes until the cells were dislodged. The cells were sub-cultured in a ratio of 1:3 for further growth and scale-up for the assay. The cells were trypsinized and counted to a density of 5,000 or 15,000 cells and seeded in 100 μL media per well, in 96-well clear bottom black plates. The outer wells at the periphery of the plates were left unneeded and were instead filled with media to reduce the edge effect during incubation. […] Each concentration was tested in 6 replicates.
Detection method used: Cell Titer blue (Promega, Cat# G8080).

Compound: CC(=O)OC[C@H]1O[C@@H](N2C=CCC(C(N)=O)=C2)[C@H](OC(C)=O)[C@@H]1OC(C)=O [NRH triacetate (2), 1-(2′,3′,5′-triacetyl-beta-D-ribofuranosyl)-1,4-dihydronicotinamide]
- mitigating oxidative damage to human skin cells (Trial A, FIG. 1, 1 mM H2O2 for 20 hours, all doses (0.1, 0.3, 1 mM)): capable of mitigating oxidative damage
- cytoprotection compared to positive controls (Trial A, FIG. 1, 1 mM H2O2 for 20 hours, dose-dependent, highest over 0.1-1 mM): up to 88%
- cytoprotection compared to positive controls (Trial B, FIG. 2, 1 mM H2O2, compound at 1 mM): 94%
- protection against oxidative damage in skin cells (composite of Trials A and B, FIG. 3): can protect against oxidative damage
